Starred links: 1 amine or outer side, 2 acyl side, 3 side chain; linkers in the order of their positions; H or OH if unused. Positions of bridges follow the written chain, without caps; N, C: chain ends. Non-standard residues stand in square brackets, D forms with d. Residues, ends and D or L forms follow the SMILES beside them. *: point of attachment. X5 = CN(C(=O)CCC(=O)[*:3])[C@@H](CS[*:2])C(=O)[*:1]; X6 = O=C(CCC(=O)[*:3])N[C@@H](CS[*:2])C(=O)[*:1]; Trp(7-Me) = Cc1cccc2c(C[C@H](N)C(=O)O)c[nH]c12; X1 = O=C(CCCCN[*:3])N[C@@H](CS[*:2])C(=O)[*:1]; αMeLys(Me2) = CN(C)CCCC[C@](C)(N)C(=O)O; 2Nal = N[C@@H](Cc1ccc2ccccc2c1)C(=O)O; 3Pal = N[C@@H](Cc1cccnc1)C(=O)O; Lys(Me) = CNCCCC[C@H](N)C(=O)O; αMeL = CC(C)C[C@](C)(N)C(=O)O; Suc = O=C(CCC(=O)[*:2])[*:1]; Thp = NC1(C(=O)O)CCOCC1; Me2NCH2CH2 = CN(C)CC*; Aib = CC(C)(N)C(=O)O; Ava = NCCCCC(=O)O; Sar = CNCC(=O)O
Tests used:
Pancreatin = assay: Protease stability in simulated intestinal fluid (Pancreatin-SIF, FaSSIF); assay type: in vitro ADME; settings: 1 μM peptide, 37° C.; for remaining at 1 h, 1 µM: 60 min, read-out: FaSSIF 60 (min), remaining percent of peptide; for remaining at 2 h, 1 µM: 120 min, read-out: FaSSIF 120 (min), remaining percent of peptide; for remaining at 4 h, 1 µM: 240 min, read-out: FaSSIF 240 (min), remaining percent of peptide
Protocol: (§1) Studies were carried out in simulated intestinal fluid (SIF) and simulated gastric fluid (SGF) to evaluate gastric stability of the peptide compounds disclosed herein.
Similarly, the term “Pancreatin-SIF” refers to a solution of simulated intestinal fluid containing pancreatin whereas “SIF-media” refers to a solution of simulated intestinal fluid without pancreatin.
Pancreatin-SIF was prepared by dissolving 1 mg Pancreatin (MP Biomedicals) in 10 mL SIF media concentrate (ProSense).
(§2) Peptides were first dissolved at 1 mM stock concentration in 0.01 HCl (+/−10% of DMSO) and were than diluted further with water to a stock concentration of 20 μM. Final peptide concentration in the incubation was 1 μM.
(§3) To 76 μL of the Pepsin-SGF buffer, 4 μL of the 20 µM peptide stock solution was added and incubated at 37° C. At each timepoint (0, 60, 120 and 240 minutes) the reaction was quenched with addition of 80 μL Ethanol (0.1% HCOOH). The samples were centrifuged for 20 minutes and an aliquot of the supernatant 100 μL were transferred to a LoBind-MTP plate and analyzed by LCMS/MS. The peak area response was calculated at each time point for each test compound. As internal reference, the peak area response of the same test compound at TO was calculated. The percent remaining at each timepoint was calculated based on the peak area response ratio of the test compound at TO. Time 0 was set to 100%, and all later timepoints were calculated relative to time 0.

[1] = molecular target: T1, human interleukin-23 receptor (recombinant human IL-23R-Fc chimera) (Homo sapiens, UniProt Q5VWK5); assay: Human ELISA IL23/IL23R (assay for specific human IL23R antagonists); assay type: binding; settings: Table 10; read-out: Human ELISA IL23/IL23R IC50
T1 construct: Fc (IgG Fc fusion)
Outline: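 Plates coated overnight at 4 °C with human IL23 ([…]), blocked, then serially diluted peptides added with recombinant human IL-23R-Fc (0.1 μg/ml final) for 60 min at room temperature. Bound receptor detected with anti-human IgG1-HRP and fluorogenic peroxidase substrate.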

[2] = test system: IL-23 induced STAT3 signaling in HEK-Blue™ IL-23 cells; assay: IL-23 induced STAT3 signaling in HEK-Blue IL-23 cells (SEAP reporter); assay type: cell-based; settings: human IL23 0.25 ng/ml, read-out: pSTAT3
Outline: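 HEK-Blue IL-23 cells (10,000/well) pre-incubated 60 min at 37 °C with serially diluted peptides, then stimulated overnight with human IL-23 (0.25 ng/ml final). STAT3-driven SEAP in supernatant detected with QUANTI-Blue after 45 min at RT (OD 620-655 nm); dose-response curves fitted.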

Pepsin = test system: T2, Pepsin; assay: Protease stability in simulated gastric fluid (Pepsin-SGF, FaSSGF); assay type: in vitro ADME; settings: simulated gastric fluid with pepsin (Pepsin-SGF), 60 min, 1 μM peptide, 37° C., read-out: FaSSGF 60 (min), remaining percent of peptide
T2 construct: purchased Merck Millipore
Protocol: as §1
For clarification the term “Pepsin-SGF” refers to a solution of simulated gastric fluid containing pepsin whereas “SGF media” refers to a solution of simulated gastric fluid without pepsin. Pepsin-SGF was prepared by dissolving 320 mg Pepsin (Merck Millipore) in 100 mL SGF media concentrate (ProSense).
as §2
as §3, with “μM” for “µM”

Row | remaining at 1 h, 1 µM (Pancreatin) [%] | remaining at 2 h, 1 µM (Pancreatin) [%] | remaining at 4 h, 1 µM (Pancreatin) [%] | IC50 [1] [nM] | remaining at 1 h, 1 µM (Pepsin) [%] | Compound | IC50 [2] [nM]
1 | 82 | 81 | 77 | 0.58 | 87 | CC(=O)NCCCC[C@@H]1NC(=O)[C@H](Cc2c[nH]c3c(C)cccc23)NC(=O)[C@@H](NC(C)=O)CCCCNC(=O)[C@@H]2CSSC[C@H](NC1=O)C(=O)N[C@@H](Cc1ccc(OCCN(C)C)cc1)C(=O)N[C@@H](Cc1ccc3ccccc3c1)C(=O)N[C@@](C)(CC(C)C)C(=O)N[C@H](C(=O)N[C@@H](CC(N)=O)C(=O)N[C@@H](Cc1cccnc1)C(=O)N(C)CC(N)=O)CCC(=O)NCCCCC(=O)N2 [compound 73] (Ac-K[Trp(7-Me)]K(Ac)CY(Me2NCH2CH2)[2Nal][αMeL]EN[3Pal][Sar]-NH2; linker 1-4-8 via X1) | 0.1
2 | 85 | 81 | 72 | 0.5 | 95 | CC(=O)NCCCC[C@@H]1NC(=O)[C@H](Cc2c[nH]c3c(C)cccc23)NC(=O)[C@H]([C@@H](C)O)NC(=O)[C@H](CC(N)=O)NC(=O)[C@@H]2CSSC[C@H](NC1=O)C(=O)N[C@@H](Cc1ccc(OCCN(C)C)cc1)C(=O)N[C@@H](Cc1ccc3ccccc3c1)C(=O)NC(C)(C)C(=O)N[C@H](C(=O)N[C@@H](CC(N)=O)C(=O)N[C@@H](Cc1c[nH]cn1)C(N)=O)CCC(=O)NCCCCC(=O)N2 [compound 20] ([Ava]CNT[Trp(7-Me)]K(Ac)CY(Me2NCH2CH2)[2Nal][Aib]ENH-NH2; disulfide 2-7; lactam N-11) | 3.12
3 | 80 | 73 | 74 | 1.93 | 37 | CC(=O)N[C@H]1CCCCNC(=O)[C@@H]2CSSC[C@H](NC(=O)[C@H](CC(C)C)NC(=O)[C@H](Cc3c[nH]c4c(C)cccc34)NC1=O)C(=O)N[C@@H](Cc1ccc(OCCN(C)C)cc1)C(=O)N[C@@H](Cc1ccc3ccccc3c1)C(=O)N[C@@](C)(CC(C)C)C(=O)N[C@H](C(=O)N[C@@H](CC(N)=O)C(=O)N[C@@H](Cc1cccnc1)C(=O)N(C)CC(N)=O)CCCCNC(=O)CCC(=O)N2 [compound 158] (Ac-K[Trp(7-Me)]LCY(Me2NCH2CH2)[2Nal][αMeL]KN[3Pal][Sar]-NH2; linker 1-4-8 via X6) | 0.39
4 | 76 | 76 | 74 | 0.65 | 90 | CC(=O)NCCCC[C@@H]1NC(=O)[C@H](Cc2c[nH]c3c(C)cccc23)NC(=O)[C@@H](NC(C)=O)CCCCNC(=O)[C@@H]2CSSC[C@H](NC1=O)C(=O)N[C@@H](Cc1ccc(OCCN(C)C)cc1)C(=O)N[C@@H](Cc1ccc3ccccc3c1)C(=O)N[C@@](C)(CC(C)C)C(=O)N[C@H](C(=O)N[C@@H](CC(N)=O)C(=O)N[C@@H](Cc1cccnc1)C(=O)N(C)CC(N)=O)CCCCNC(=O)CCC(=O)N2 [compound 106] (Ac-K[Trp(7-Me)]K(Ac)CY(Me2NCH2CH2)[2Nal][αMeL]KN[3Pal][Sar]-NH2; linker 1-4-8 via X6) | 0.13
5 | 73 | 58 | 47 | 0.45 | 70 | CC(=O)N[C@H]1CCCCNC(=O)[C@@H]2CSSC[C@H](NC(=O)[C@H](CCC(N)=O)NC(=O)[C@H](Cc3c[nH]c4ccccc34)NC1=O)C(=O)N[C@@H](Cc1ccc(OCCN(C)C)cc1)C(=O)N[C@@H](Cc1ccc3ccccc3c1)C(=O)NC(C)(C)C(=O)N[C@H](C(=O)N[C@@H](CC(N)=O)C(=O)NCC(N)=O)CCC(=O)NCCCCC(=O)N2 [compound 29] (Ac-KWQCY(Me2NCH2CH2)[2Nal][Aib]ENG-NH2; linker 1-4-8 via X1) | 8.16
6 | 78 | 80 | 77 | 0.55 | 93 | CC(=O)NCCCC[C@@H]1NC(=O)[C@H](Cc2c[nH]c3c(C)cccc23)NC(=O)[C@@H](NC(C)=O)CCCCNC(=O)[C@@H]2CSSC[C@H](NC1=O)C(=O)N[C@@H](Cc1ccc(OCCN(C)C)cc1)C(=O)N[C@@H](Cc1ccc3ccccc3c1)C(=O)NC1(CCOCC1)C(=O)N[C@H](C(=O)N[C@@H](CC(N)=O)C(=O)N[C@@H](Cc1cccnc1)C(=O)N(C)CC(N)=O)CCCCNC(=O)CCC(=O)N2 [compound 105] (Ac-K[Trp(7-Me)]K(Ac)CY(Me2NCH2CH2)[2Nal][Thp]KN[3Pal][Sar]-NH2; linker 1-4-8 via X6) | 0.1
7 | 82 | 79 | 79 | 0.49 | 60 | CC(=O)NCCCC[C@@H]1NC(=O)[C@H](Cc2c[nH]c3c(C)cccc23)NC(=O)[C@H]([C@@H](C)O)NC(=O)[C@H](CC(N)=O)NC(=O)[C@@H]2CSSC[C@H](NC1=O)C(=O)N[C@@H](Cc1ccc(OCCN(C)C)cc1)C(=O)N[C@@H](Cc1ccc3ccccc3c1)C(=O)N[C@@](C)(CC(C)C)C(=O)N[C@H](C(=O)N[C@@H](CC(N)=O)C(=O)N[C@@H](Cc1c[nH]cn1)C(N)=O)CCC(=O)NCCCCC(=O)N2 [compound 22] ([Ava]CNT[Trp(7-Me)]K(Ac)CY(Me2NCH2CH2)[2Nal][αMeL]ENH-NH2; disulfide 2-7; lactam N-11) | 1.37
8 | 97 | 89 | 83 | 2.17 | 79 | CC(=O)N[C@H]1CCCCNC(=O)[C@@H]2CSSC[C@H](NC(=O)[C@H](CC(C)C)NC(=O)[C@H](Cc3c[nH]c4c(C)cccc34)NC1=O)C(=O)N[C@@H](Cc1ccc(OCCN(C)C)cc1)C(=O)N[C@@H](Cc1ccc3ccccc3c1)C(=O)N[C@@](C)(CC(C)C)C(=O)N[C@H](C(=O)N[C@@H](CC(N)=O)C(=O)N[C@@H](Cc1cccnc1)C(=O)N(C)CC(N)=O)CCCCN(C)C(=O)CCC(=O)N2C [compound 69] (Ac-K[Trp(7-Me)]LCY(Me2NCH2CH2)[2Nal][αMeL][Lys(Me)]N[3Pal][Sar]-NH2; linker 1-4-8 via X5) | 3.07
9 | 80 | 80 | 76 | 0.64 | 100 | CC(=O)NCCCC[C@@H]1NC(=O)[C@H](Cc2c[nH]c3c(C)cccc23)NC(=O)[C@@H](NC(C)=O)CCCCNC(=O)[C@@H]2CSSC[C@H](NC1=O)C(=O)N[C@@H](Cc1ccc(OCCN(C)C)cc1)C(=O)N[C@@H](Cc1ccc3ccccc3c1)C(=O)NC(C)(C)C(=O)N[C@H](C(=O)N[C@@H](CC(N)=O)C(=O)N[C@@H](Cc1cccnc1)C(=O)N(C)CC(N)=O)CCCCNC(=O)CCC(=O)N2 [compound 104] (Ac-K[Trp(7-Me)]K(Ac)CY(Me2NCH2CH2)[2Nal][Aib]KN[3Pal][Sar]-NH2; linker 1-4-8 via X6) | 0.1
10 | 99 | 99 | 97 | 0.61 | 100 | CC(=O)NCCCC[C@@H]1NC(=O)[C@H](Cc2c[nH]c3c(C)cccc23)NC(=O)[C@H]([C@@H](C)O)NC(=O)[C@H](CC(N)=O)NC(=O)[C@@H]2CSSC[C@H](NC1=O)C(=O)N[C@@H](Cc1ccc(OCCN(C)C)cc1)C(=O)N[C@@H](Cc1ccc3ccccc3c1)C(=O)N[C@@](C)(CCCCN(C)C)C(=O)N[C@H](C(=O)N[C@@H](CC(N)=O)C(=O)N[C@@H](Cc1cccnc1)C(=O)N(C)CC(N)=O)CCCCN(C)C(=O)CCC(=O)N2 [compound 156] (CNT[Trp(7-Me)]K(Ac)CY(Me2NCH2CH2)[2Nal][αMeLys(Me2)][Lys(Me)]N[3Pal][Sar]-NH2; disulfide 1-6; linker N-10 via Suc) | 0.08
